Results: patent publication US10533018B2, “Antimicrobial prochelators to target drug-resistant bacteria and methods of making and using the same” (Duke University, priority 2015, dated 2020)
Read-outs that look alike come from different tables or passages of the source.

Key:
UTI89 E. coli = assay: Broth microdilution growth inhibition (OD600); format: cell-based, Escherichia coli; conditions: UTI89 E. coli
From the text: (§1) Bacterial culture reagents including LB broth (Lennox), agar-agar, ampicillin, and ceftriaxone were purchased from Sigma Aldrich Corp. The Escherichia coli (E. coli) K12 strain HB101 and pGLO E. coli transformation kit purchased from Bio-Rad Laboratories Inc. HB101 was transformed with the bla gene via the pGLO plasmid. The bla gene encodes for a TEM-1 β-lactamase that imparts penicillin resistance to the mutant E. coli K-12 strain (+Bla). Strains E. coli UTI89, [27] pCOM-GFP-transformed E. coli UTI89 (pCOM-GFP), [28] and Methicillin-Resistant Staphylococcus aureus (MRSA) clone USA300 [29] have been previously described. The Extended-Spectrum β-Lactamase (ESBL) E. coli, Klebsiella pneumonia (Klebs), and Pseudomonas aeruginosa (Pseudo) strains were clinical isolates acquired deidentified from Duke Hospital and tested for antibiotic susceptibility in the Clinical Microbiology Laboratory using standard clinical susceptibility methods.
(§2) Cultures were incubated on LB (Lennox, Sigma) agar at 37° C. in ambient atmospheric composition. Before beginning an experiment, a single bacterial colony grown on LB agar was resuspended in 2 mL LB broth and incubated overnight to form a turbid cell suspension. The overnight culture was diluted 1:100 in LB and used immediately as the working culture. To assess the antibacterial activity of compounds, the working bacterial culture was aliquoted in a clear, flat-bottomed, 96-well polystyrene plate (Costar) and the compound of interest was added in 2-fold serial dilution from 500 to 1 μM. Plates were covered with a breathable sealing film (Aeroseal, Genesee Scientific) and incubated at 37° C. in ambient atmospheric composition with shaking at 200 rpm. Optical density at 600 nm was recorded after 4 h and 20 h for each well using a standard OD600 protocol with LB serving as the blank. The resulting dose-response curves were fit to a nonlinear regression in GraphPad Prism Version 6 to calculate the IC50 of DB4-51 in each strain.
(§3) The ability of DB4-162 to inhibit bacterial growth was assessed by a traditional broth microdilution method that assesses the turbidity of liquid cultures in the presence of varying concentrations of the compound. As described above for DB4-51, the antibacterial properties of the prochelator DB4-162 were assessed in non-pathogenic lab-strain HB101K-12 E. coli and compared to the pGLO-transfected mutant HB101K-12 E. coli that express β-lactamase. Clinically relevant pathogenic bacteria were also screened, including UTI89 E. coli, pCOM transfected UTI89 E. coli (pCOM), extended spectrum β-lactamase (ESBL) E. coli, methicillin-resistant Staphylococcus aureus (MRSA), and Klebsiella pneumonia (Klebs). In addition to being naturally resistant to many β-lactam antibiotics, MRSA can produce a number of β-lactamases. […] It should be noted that all of the bacteria tested are gram-negative except for gram-positive MRSA.
(§4) The goal of this screen was to calculate the IC50 of the prochelator in a series of pathogenic bacteria and compare these values to the IC50 of known antibiotics in those same strains to determine the relative effectiveness of DB4-162 against the drug-resistant and drug-susceptible bacteria in comparison to current antibiotic treatment options. Bacterial growth was monitored in LB broth at 37° C. in the presence and absence of DB4-162 for 20 hours. A concentration gradient of DB4-162 from 500 to 0 μM was used to screen all 7 strains of bacteria and the dose-response curves were fit to a […] to calculate the IC50 of DB4-162 in each strain. These IC50 values are an approximation of how effectively DB4-162 inhibits the growth of each bacterial strain in vitro.
(§5) IC50 values for ampicillin were calculated via broth microdilution in LB broth only. Values are listed as the mean followed by the 95% confidence interval about the mean. Mean and confidence intervals were calculated from a variable slope, nonlinear regression fit to the dose-response OD600 data. […]

[1] = tested on: clinical isolates of Klebsiella pneumonia (Klebs); assay: Broth microdilution in Klebs clinical isolates; format: cell-based; conditions: Klebsiella pneumoniae, LB broth
From the text: as §1, §2

[2] = tested on: resistant E. coli HB101 K-12 transformed to express β-lactamase; assay: microbe, parasite or virus in culture; format: cell-based, Escherichia coli; conditions: for IC50: Escherichia coli
Procedure: In order to determine the antibiotic activity of DB4-51, a debilitated strain of Escherichia coli (HB101 K-12) was transformed with the pGLO plasmid from Bio-Rad in order to express β-lactamase. This transformation was confirmed by growing on a selective medium containing 100 μg/ml ampicillin in Lennox LB with 1.5% agar. A broth microdilution assay was employed to determine the relative activity of DB4-51 against susceptible (HB 101 K-12, no β-lactamase) and resistant (HB 101 K-12 transformed to express β-lactamase) E. coli. […] The bacterial growth was monitored by recording each well's absorbance at 600 nm (OD600.) The OD600 values of E. coli suspensions incubated with various compounds were compared in order to assess their activities.
FIG. 7: OD600 of susceptible and resistant K-12 E. coli cultures against DB4-51 and known antibiotics as a function of concentration. Ampicillin has a penicillin core and cephalexin has a cephalosporin core. Cultures were grown in LB broth at 37° C. while shaking at 200 rpm for 18 hours and then diluted to an OD600 of 0.005 before adding the compounds. […]
Table 1: Calculated IC50 values for DB4-51, cephalexin, ampicillin, and pyrithione. These values were derived by fitting the data to a log dose-response curve and reporting the concentration corresponding to half the maximum OD600 value for each compound.

+Bla K-12 E. coli = assay: microbe, parasite or virus in culture; format: cell-based, Escherichia coli
From the text: as §1, §2, §3, §4, §5

ESBL E. coli = assay: microbe, parasite or virus in culture; format: cell-based, Escherichia coli; conditions: for IC50: ESBL E. coli
From the text: as §1, §2, §3, §4, §5

−Bla K-12 E. coli = assay: microbe, parasite or virus in culture; format: cell-based, Escherichia coli; conditions: −Bla K-12 E. coli
From the text: as §1, §2, §3, §4, §5

pCOM E. coli = assay: microbe, parasite or virus in culture; format: cell-based, Escherichia coli; conditions: for IC50: Escherichia coli, pCOM E. coli
From the text: as §1, §2, §3, §4, §5

[3] = Escherichia coli, +Bla K-12 E. coli, LB + 10 μM CuCl2
[4] = Escherichia coli, +Bla K-12 E. coli, LB + 500 μM BCS
[5] = Escherichia coli, LB + 10 μM CuCl2
[6] = Escherichia coli, LB + 500 μM BCS
[7] = Escherichia coli, LB + 10 μM CuCl2, read-out: IC50
[8] = Escherichia coli, LB + 500 μM BCS, read-out: IC50
[9] = Escherichia coli, +Bla K-12 E. coli, LB broth

SMILES	IC50 ([1]; Klebs Isolate 1) [µM]	IC50 ([1]; Klebs Isolate 2) [µM]	IC50 ([1]; Klebs Isolate 3) [µM]	IC50 ([1]; Klebs Isolate 4) [µM]	IC50 ([1]; Klebs Isolate 5) [µM]	IC50 ([1]; Klebs Isolate 6) [µM]	IC50 ([1]; Klebs Isolate 7) [µM]	IC50 ([1]; Klebs Isolate 8) [µM]	IC50 ([1]; Klebs Isolate 9) [µM]	IC50 ([1]; Klebs Isolate 10) [µM]	IC50 ([1]; Klebs Isolate 11) [µM]	IC50 ([1]; Klebs Isolate 12) [µM]	IC50 ([1]; Klebs Isolate 13) [µM]	IC50 [2] [µM]	IC50 (+Bla K-12 E. coli; [3]) [µM]	IC50 (+Bla K-12 E. coli; [4]) [µM]	IC50 (UTI89 E. coli; [5]) [µM]	IC50 (UTI89 E. coli; [6]) [µM]	IC50 (ESBL E. coli; [6]) [µM]	IC50 (−Bla K-12 E. coli; [7]) [µM]	other results
CC1(C)S[C@@H]2[C@H](NC(=O)[C@H](N)c3ccccc3)C(=O)N2[C@H]1C(=O)O [Ampicillin]	142	> 500	55	> 500	175	118	> 500	> 500	> 500	> 500	251	112	> 500	> 560	> 250	> 250					IC50 (UTI89 E. coli; LB broth): 0.003 µM; IC50 (UTI89 E. coli; LB broth, listed as ampicillin): 3 µM; IC50 (+Bla K-12 E. coli; +Bla K-12 E. coli, LB broth): > 250 µM; IC50 (ESBL E. coli; LB broth): > 250 µM; IC50 (−Bla K-12 E. coli; LB broth, listed as ampicillin, read-out: IC50): 8 µM; IC50 (−Bla K-12 E. coli; LB broth, read-out: IC50): 0.008 µM
O=C(Cc1ccccc1)N[C@@H]1C(=O)N2C(C(=O)O)=C(CSc3cccc[n+]3[O-])CS[C@H]12 [DB4-51, 2-((((6R,7R)-2-carboxy-8-oxo-7-(2-phenylacetamido)-5-thia-1-azabicyclo[4.2.0]oct-2-en-3-yl)methyl)thio)pyridine 1-oxide]	25	45	163	133	49	47	9	30	10	150	34	52	> 500	39		0.051	0.021	0.017	0.017	0.015	decrease of IC50 over time ([2]; resistant K-12, over 22 hours): 50%; change in IC50 value depending on Cu status (+Bla K-12 E. coli; +Bla K-12 E. coli, Cu replete vs Cu depleted): less than 4 fold; IC50 (+Bla K-12 E. coli; Escherichia coli, read-out: IC50 after pre-incubation with β-lactamase, +Bla K-12 E. coli, pre-incubated with β-lactamase): 8 µM; change in IC50 value depending on Cu status (pCOM E. coli; pCOM-GFP UTI89 E. coli, Cu replete vs Cu depleted): 10 fold; IC50 (−Bla K-12 E. coli; [8]): 0.038 µM; IC50 (−Bla K-12 E. coli; Escherichia coli, pre-incubated with β-lactamase, read-out: IC50 after pre-incubation with β-lactamase): 9 µM
Cc1csc(=S)n1OCC1=C(C(=O)O)N2C(=O)[C@@H](NC(=O)Cc3ccccc3)[C@H]2SC1 [DB4-162, (6R,7R)-3-(((4-methyl-2-thioxothiazol-3(2H)-yl)oxy)methyl)-8-oxo-7-(2-phenylacetamido)-5-thia-1-azabicyclo[4.2.0]oct-2-ene-2-carboxylic acid]															147	179	97	77	50	39	IC50 (UTI89 E. coli; Escherichia coli, LB broth): 93 µM; IC50 (+Bla K-12 E. coli; [9]): 143 µM; IC50 (ESBL E. coli; [5]): 21 µM; IC50 (ESBL E. coli; Escherichia coli, LB broth): 22 µM; IC50 in ESBL E. coli lower than in −Bla K-12 E. coli (ESBL E. coli; LB broth): 90%; IC50 (pCOM E. coli; LB + 10 μM CuCl2): 93 µM; IC50 (pCOM E. coli; LB + 500 μM BCS): 168 µM; IC50 (pCOM E. coli; LB broth): 112 µM; IC50 (−Bla K-12 E. coli; [8]): 54 µM; IC50 (−Bla K-12 E. coli; Escherichia coli, LB broth, read-out: IC50): 227 µM
[O-][n+]1ccccc1S [PT, 2-mercaptopyridine N-oxide]	10	5	21	9	11	6	10	10	9	5	6.5	8	11	< 18		0.019	0.004	0.006			IC50 (UTI89 E. coli; Escherichia coli, LB broth): 0.002 µM; IC50 (+Bla K-12 E. coli; [9]): 0.006 µM; IC50 (ESBL E. coli; Escherichia coli, LB broth): 0.005 µM; IC50 (pCOM E. coli; LB + 10 μM CuCl2): 0.004 µM; IC50 (pCOM E. coli; LB + 500 μM BCS): 0.007 µM; IC50 (pCOM E. coli; LB broth): 0.002 µM
